Test results from patent publication US11946934B2, “Biomarker for predicting the sensitivity to a protein kinase inhibitor and a use thereof” (Wellmarker Bio Co., LTD., priority 2014, dated 2024).
“Also recorded” adds a separate entry of the source.

How the values were obtained:
[1] = tested on: RON (p-RON) in HT29; assay: Inhibition of RON phosphorylation in HT29 colon cancer cells; format: cell-based; conditions: HT29, various concentrations
Procedure: (§1) The cells in the sample were lysed using RIPA buffer and the protein was extracted therefrom using a high speed centrifuge. The protein in an amount of 30 μg per cell was separated by electrophoresis, transferred onto a PDVF membrane by western blot, and allowed to react with RON antibodies, which were diluted in 5% skim milk at a 1:2000 ratio, at 4° C. for 12 hours. Then, the resultant was washed 3 times with TBS-T buffer for 15 minutes per wash, reacted with the secondary antibodies, which were diluted in 5% skim milk at a 1:2000 ratio, at room temperature for 2 hours, washed 3 times with TBS-T buffer for 15 minutes per wash. The illumination of the PDVF membrane was induced using ECL buffer and the expression of the RON protein was developed using an X-ray film. Additionally, 1 μg of the RON antibody was added to the protein in an amount of 500 μg per cell by immunoprecipitation method, reacted at 4° C. for 12 hours, and anti-antibody beads were added thereto to immunoprecipitate the RON antibody. The resultant was separated by electrophoresis, transferred onto a PDVF membrane by western blot, and allowed to react with p-Tyr antibodies, which were diluted in 5% skim milk at a 1:1000 ratio, at 4° C. for 12 hours. […]

[2] = tested on: Colo320HSR introduced with RON-active Δ160 gene; assay: Induction of apoptosis; format: cell-based
Source text: (§2) Additionally, Colo320HSR, the colon cancer cell line in which RON is not expressed, was introduced with the RON-active Δ155 gene and the RON-active Δ160 gene, which are constantly active in the Colo320HSR, and treated with CJ12524 at various concentrations in order to confirm the presence of apoptosis.

[3] = tested on: Colo320HSR introduced with RON-active Δ155 gene; assay: Induction of apoptosis; format: cell-based
Source text: as §2

[4] = tested on: HCT8 cell line xenograft in nude mice; assay: RON-active cancer cell xenograft model, tumor size, tumor weight, body weight; format: in vivo, mouse
Procedure: For analyzing the drug sensitivity to CJ12524 in an in-vivo state, the present inventors transplanted a cancer cell line which was determined to be positive against the RON activity into nude mice, and thereby a cancer cell-derived xenograft model ([…]) was prepared.

[5] = target: T1, RON (p-RON) in HCT8 (Homo sapiens, UniProt Q04912); assay: Inhibition of RON phosphorylation in HCT8 colon cancer cells; format: cell-based; conditions: HCT8, various concentrations
T1 construct: endogenous in cells; host or cells: HCT8 (cultured, and as xenograft tumour in nude mice)
Procedure: as §1

[6] = target: T2, RON-active Δ155 (Homo sapiens, UniProt Q04912, DEL574-682/INS813Q); assay: Inhibition of RON phosphorylation in Colo320HSR introduced with RON variant; format: cell-based; conditions: Colo320HSR with RON-active Δ155 gene
T2 construct: expressed in transfected cells; host or cells: Colo320HSR
Procedure: as §1

[7] = tested on: RON-active Δ160; assay: as above; format: cell-based; conditions: Colo320HSR with RON-active Δ160 gene
Procedure: as §1

[8] = target: T3, RON phosphorylation (Homo sapiens, UniProt Q04912); assay: RON phosphorylation in tumor tissue of the HCT8 xenograft model (immunochemical staining, western blot); format: in vivo; conditions: after completion of administration, FIG. 8c, 8d
T3 construct: endogenous in cells; host or cells: HCT8 (cultured, and as xenograft tumour in nude mice)
Procedure: as §1

[9] = tested on: HCT8; assay: Induction of apoptosis; format: cell-based
Procedure: (§3) HT29 and HCT8, the colon cancer cell lines which have a high p-RON expression level because RON is always phosphorylated, were treated with CJ12524 in order to confirm the presence of apoptosis.

[10] = tested on: HT29; assay: Induction of apoptosis; format: cell-based
Procedure: as §3

[11] = tested on: HCT8; assay: Cell invasion (cell metastasis); format: cell-based; conditions: HCT8, FIG. 7e
Procedure: HCT8, a colon cancer cell line where RON is always phosphorylated, was treated with CJ12524 in order to confirm the degree of cell invasion.

[12] = tested on: Colo320HSR introduced with RON Δ155; assay: Colo320HSR xenograft animal model, inhibition of tumor growth; format: in vivo; conditions: RON-active variant Δ155
Procedure: (§4) Specifically, an animal model using the Colo320HSR cell line without RON activity (control group) and an animal model using the cell line introduced with the RON-active Δ155 gene and the RON-active Δ160 gene, which are constantly expressed, or a RON M1254T mutant were prepared, and their effects of inhibiting tumor formation by CJ12537 were compared.

[13] = tested on: Colo320HSR introduced with RON Δ160; assay: as above; format: in vivo
Procedure: as §4

[14] = tested on: Colo320HSR control (pMET & pRON negative, without RON activity); assay: as above; format: in vivo; conditions: various concentrations
Procedure: as §4

[15] = tested on: MKN1 cells transplanted into Balb/c nude mice; assay: Stomach cancer cell xenograft mouse model without RON activity, tumor volume; format: in vivo; conditions: 30 mpk and 100 mpk oral daily, FIG. 9
Source text: It was confirmed whether tumor formation can be inhibited by CJ12537 in a stomach cancer xenograft mouse model without RON activity.
Specifically, 5-to 6-week-old Balb/c nude mice were subcutaneously injected with 1×10^7 cells (MKN1 parent, MKN1 RONΔ160 stable cell) and Matrigel at a 1:1 (v/v) ratio. When the tumor size grew to a size of 90 mm^3 to 100 mm^3, the mice were divided into groups and administered with drugs. Vehicle, CJ12537 (30 mpk), CJ12537 (100 mpk), and positive control (Amgen; 30 mpk) were orally administered daily. The tumor size was measured once in three days. Upon completion of the administration, the mice were sacrificed and tissues were ablated and the weight of tumor was measured. In particular, proteins were extracted from the tissues and the changes in expression pattern of p-RON and related proteins were confirmed by western blot analysis. Additionally, for confirming the change in tumor size, the tumor size was measured once every three days and compared and analyzed even after the completion of drug administration.

[16] = various concentrations, 14 days, FIG. 8a

T1 sequence (Q04912 25-1400): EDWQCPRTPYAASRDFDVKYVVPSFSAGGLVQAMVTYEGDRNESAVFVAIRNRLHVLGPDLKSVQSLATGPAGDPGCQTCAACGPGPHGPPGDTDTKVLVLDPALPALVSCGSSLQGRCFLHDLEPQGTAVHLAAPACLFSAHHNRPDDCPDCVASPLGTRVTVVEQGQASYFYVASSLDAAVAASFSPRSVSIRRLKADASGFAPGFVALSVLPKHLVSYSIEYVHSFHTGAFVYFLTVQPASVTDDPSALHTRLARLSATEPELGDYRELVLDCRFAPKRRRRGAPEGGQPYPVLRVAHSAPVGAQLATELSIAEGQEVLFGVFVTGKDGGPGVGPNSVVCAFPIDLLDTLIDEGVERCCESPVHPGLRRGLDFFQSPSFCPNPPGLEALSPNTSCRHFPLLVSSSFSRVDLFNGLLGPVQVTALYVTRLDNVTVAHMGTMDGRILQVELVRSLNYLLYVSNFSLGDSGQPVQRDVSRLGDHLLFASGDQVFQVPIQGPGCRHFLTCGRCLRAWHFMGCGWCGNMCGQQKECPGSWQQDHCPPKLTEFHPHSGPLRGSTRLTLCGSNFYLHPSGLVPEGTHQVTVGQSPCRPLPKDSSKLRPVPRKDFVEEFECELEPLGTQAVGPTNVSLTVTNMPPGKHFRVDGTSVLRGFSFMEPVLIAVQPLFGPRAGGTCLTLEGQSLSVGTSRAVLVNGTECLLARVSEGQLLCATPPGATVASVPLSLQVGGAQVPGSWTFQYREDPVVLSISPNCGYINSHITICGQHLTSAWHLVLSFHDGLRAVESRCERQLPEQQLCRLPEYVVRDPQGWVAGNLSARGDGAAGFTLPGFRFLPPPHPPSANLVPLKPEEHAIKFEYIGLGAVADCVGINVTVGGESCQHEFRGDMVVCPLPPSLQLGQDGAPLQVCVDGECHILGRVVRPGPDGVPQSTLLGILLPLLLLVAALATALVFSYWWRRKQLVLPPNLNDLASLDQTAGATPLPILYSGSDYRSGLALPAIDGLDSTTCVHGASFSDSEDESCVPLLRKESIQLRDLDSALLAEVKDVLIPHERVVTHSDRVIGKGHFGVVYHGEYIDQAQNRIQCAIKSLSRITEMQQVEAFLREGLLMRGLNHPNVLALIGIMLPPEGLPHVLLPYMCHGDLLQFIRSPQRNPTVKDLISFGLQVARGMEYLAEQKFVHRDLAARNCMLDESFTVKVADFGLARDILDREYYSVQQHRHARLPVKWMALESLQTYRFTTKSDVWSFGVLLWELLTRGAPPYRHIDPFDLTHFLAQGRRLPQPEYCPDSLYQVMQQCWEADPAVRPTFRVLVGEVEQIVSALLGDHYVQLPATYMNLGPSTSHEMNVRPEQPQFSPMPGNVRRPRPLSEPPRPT
T3 sequence (Q04912 25-1400): as above
T2 sequence (Q04912 with tags, fused parts or gaps isoform Q04912-2 DEL574-682/INS813Q): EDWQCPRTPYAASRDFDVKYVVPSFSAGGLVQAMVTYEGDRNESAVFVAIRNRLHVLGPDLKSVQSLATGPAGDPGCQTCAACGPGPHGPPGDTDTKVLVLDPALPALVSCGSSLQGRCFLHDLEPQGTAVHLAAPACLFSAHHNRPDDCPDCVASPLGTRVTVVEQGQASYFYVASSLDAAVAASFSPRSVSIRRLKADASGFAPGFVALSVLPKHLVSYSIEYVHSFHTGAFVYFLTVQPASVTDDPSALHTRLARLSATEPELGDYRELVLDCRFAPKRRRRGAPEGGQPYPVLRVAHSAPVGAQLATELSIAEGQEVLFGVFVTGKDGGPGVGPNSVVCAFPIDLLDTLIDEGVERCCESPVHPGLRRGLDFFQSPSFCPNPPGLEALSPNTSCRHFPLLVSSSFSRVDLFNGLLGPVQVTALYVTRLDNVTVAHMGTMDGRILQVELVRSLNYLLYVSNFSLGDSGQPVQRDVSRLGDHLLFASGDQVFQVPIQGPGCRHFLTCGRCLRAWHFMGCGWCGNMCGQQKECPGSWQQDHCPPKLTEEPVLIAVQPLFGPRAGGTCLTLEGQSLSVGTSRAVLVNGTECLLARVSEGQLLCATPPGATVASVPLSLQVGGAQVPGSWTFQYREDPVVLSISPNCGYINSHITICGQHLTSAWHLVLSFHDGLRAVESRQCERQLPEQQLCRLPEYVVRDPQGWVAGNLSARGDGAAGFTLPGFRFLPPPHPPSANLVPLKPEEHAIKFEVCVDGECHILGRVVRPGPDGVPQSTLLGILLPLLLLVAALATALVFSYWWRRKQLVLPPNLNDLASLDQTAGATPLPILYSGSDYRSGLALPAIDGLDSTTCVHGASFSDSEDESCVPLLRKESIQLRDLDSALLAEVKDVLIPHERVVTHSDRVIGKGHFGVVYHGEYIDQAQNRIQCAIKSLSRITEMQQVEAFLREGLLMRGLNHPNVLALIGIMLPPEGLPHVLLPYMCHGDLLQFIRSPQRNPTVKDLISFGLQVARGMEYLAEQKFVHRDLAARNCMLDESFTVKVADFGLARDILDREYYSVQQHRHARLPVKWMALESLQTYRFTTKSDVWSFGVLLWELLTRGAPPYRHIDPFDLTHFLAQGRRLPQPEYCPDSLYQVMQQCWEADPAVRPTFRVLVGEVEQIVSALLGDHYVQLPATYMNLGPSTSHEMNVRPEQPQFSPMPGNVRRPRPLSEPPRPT

For CCOc1ccn(-c2ccc(F)cc2)c(=O)c1C(=O)Nc1ccc(Oc2ccnc3cc(-c4ccccn4)sc23)c(F)c1 [CJ12524, 4-ethoxy-N-(3-fluoro-4-(2-(pyridin-2-yl)thieno[3,2-b]pyridin-7-yloxy)phenyl)-1-(4-fluorophenyl)-2-oxo-1,2-dihydropyridin-3-carboxamide], the RON phosphorylation [1] was “inhibited; also recorded: reduced”, the “expression of cleaved caspase 3 (apoptosis marker)” value ([2]; Colo320HSR RON-active Δ160, according to the concentration) was “increased” and the apoptosis ([2]; Colo320HSR RON-active Δ160, various concentrations, FIG. 7d) was “increased”. For the same compound, the “expression of cleaved caspase 3 (apoptosis marker)” value ([3]; Colo320HSR RON-active Δ155, according to the concentration) was “increased”, the apoptosis ([3]; Colo320HSR RON-active Δ155, various concentrations, FIG. 7d) was “increased” and the “tumor weight upon completion of drug administration” value ([4]; all treated groups, FIG. 8b) was “reduced”. For the same compound, the “body weight of the mice” value [4, 16] was “almost no decrease”, the “tumor growth (tumor size)” value [4, 16] was “inhibited” and the RON phosphorylation [5] was “inhibited; also recorded: reduced”. The RON phosphorylation [6] was “reduced”, the RON phosphorylation [7] was “reduced” and the “RON phosphorylation in tumor tissue” value [8] was “decreased”. The “expression of cleaved caspase 3” value ([9]; HCT8) was “increased”, the apoptosis ([9]; HCT8, various concentrations, according to the concentration, FIG. 7c) was “increased” and the “expression of cleaved caspase 3” value ([10]; HT29) was “increased”. For the same compound, the apoptosis ([10]; HT29, various concentrations, according to the concentration, FIG. 7c) was “increased” and the “inhibition of the degree of cell metastasis (cell invasion)” value [11] was “about 60%”.

For CCOc1ccn(-c2ccc(F)cc2)c(=O)c1C(=O)Nc1ccc(Oc2ccnc3cc(-c4cn(C)cn4)sc23)c(F)c1 [CJ12537, 4-ethoxy-N-(3-fluoro-4-(2-(1-methyl-1H-imidazol-4-yl)thieno[3,2-b]pyridin-7-yloxy)phenyl)-1-(4-fluorophenyl)-2-oxo-1,2-dihydropyridin-3-carboxamide], the tumor formation [12] was “inhibited tumor formation”, the “Tumor growth relative to vehicle (fold)” value ([13]; Colo320HSR RON Δ160, 30 MPK, vehicle = 1) was 0.71 fold and the tumor formation ([13]; RON-active variant Δ160) was “inhibited tumor formation”. The tumor formation [14] was “did not inhibit tumor formation at all” and the tumor volume [15] was “no noticeable change”.
